Assays:
[1] = (§1) The drug is tested on Z-029 corresponding to rat gut metagenome with ENA study accession number: PRJEB37062 and ENA sample accession number: ERS12561828 for biotransformation under anaerobic condition. The drug concentrations were measured over 9 timepoints collected between 0 and 24 hours of incubation by liquid-chromatography-coupled mass spectrometry (LC–MS); conditions: 2 µM
[2] = human gut metagenome, 24 h, 2 µM
[3] = human gut metagenome, 24 h, 2 µM; remark: listed apart in the source
[4] = as §1, with “Z-023” for “Z-029”, “to” for “to rat gut”, “ERS12561822” for “ERS12561828”; conditions: 2 µM
[5] = as §1, with “on Z-025” for “on Z-029”, “to rabbit” for “to rat”, “number: ERS12561824” for “number: ERS12561828”; conditions: 2 µM
[6] = as §1, with “on WLS-006” for “on Z-029”, “to human” for “to rat”, “number: ERS12561741” for “number: ERS12561828”; conditions: 2 µM
[7] = as §1, with “Z-027” for “Z-029”, “to” for “to rat gut”, “ERS12561826” for “ERS12561828”; conditions: 2 µM
[8] = human gut metagenome, 24 h, 2 µM; remark: listed apart in the source
[9] = human gut metagenome, 24 h, 2 µM; remark: listed apart in the source
[10] = as §1, with “on WLS-027” for “on Z-029”, “to human” for “to rat”, “number: ERS12561744” for “number: ERS12561828”; conditions: 2 µM
[11] = as §1, with “Z-005” for “Z-029”, “to” for “to rat gut”, “ERS12561805” for “ERS12561828”; conditions: 2 µM
[12] = as §1, with “on Z-002” for “on Z-029”, “to rabbit” for “to rat”, “number: ERS12561802” for “number: ERS12561828”; conditions: 2 µM
[13] = human gut metagenome, 24 h, 2 µM; remark: listed apart in the source
[14] = human gut metagenome, 24 h, 2 µM; remark: listed apart in the source
[15] = as §1, with “Z-012” for “Z-029”, “to” for “to rat gut”, “ERS12561812” for “ERS12561828”; conditions: 2 µM
[16] = human gut metagenome, 24 h, 2 µM; remark: listed apart in the source
[17] = human gut metagenome, 24 h, 2 µM; remark: listed apart in the source
[18] = as §1, with “on Z-009” for “on Z-029”, “to pig” for “to rat”, “number: ERS12561809” for “number: ERS12561828”; conditions: 2 µM
[19] = as §1, with “on WLS-090” for “on Z-029”, “to human” for “to rat”, “number: ERS12561753” for “number: ERS12561828”; conditions: 2 µM
[20] = human gut metagenome, 24 h, 2 µM; remark: listed apart in the source

Measured: Bacterial Biotransformation
Note: call rule not given here.

O=C(O)CCc1nc(-c2ccccc2)c(-c2ccccc2)o1 [OXAPROZIN]
Compound NOT metabolized: [1] | [15] | [17] | [18]
Compound metabolized: all other assays above

NC(CO)(CO)CO.O=C(c1ccccc1)c1ccc2n1CCC2C(=O)O (stereo unspecified) [KETOROLAC TROMETHAMINE]
Compound NOT metabolized: [2] | [3] | [5] | [15] | [18]
Compound metabolized: all other assays above

NS(=O)(=O)c1cc2c(cc1Cl)N=C(CSCc1ccccc1)NS2(=O)=O [BENZTHIAZIDE]
Compound metabolized: [4] | [5] | [12]
Compound NOT metabolized: all other assays above

Nc1ccc(/N=N/c2ccccc2)c(N)n1 [PHENAZOPYRIDINE]
Compound NOT metabolized: [14]
Compound metabolized: all other assays above

CN(C)CCc1c[nH]c2ccc(Cn3cncn3)cc12.O=C(O)c1ccccc1 [RIZATRIPTAN BENZOATE]
not listed: [3]
Compound NOT metabolized: all other assays above

COc1ccc2[nH]c([S+]([O-])Cc3ncc(C)c(OC)c3C)nc2n1 (stereo unspecified) [TENATOPRAZOLE]
Compound NOT metabolized: [3] | [4] | [12]
not listed: [19]
Compound metabolized: all other assays above

CC[C@H](C)C(=O)O[C@H]1C[C@@H](C)C=C2C=C[C@H](C)[C@H](CC[C@@H]3C[C@@H](O)CC(=O)O3)[C@H]21 [LOVASTATIN]
Compound metabolized: [3] | [4] | [5] | [9] | [17]
not listed: [8]
Compound NOT metabolized: all other assays above

Cc1nc2n(c(=O)c1CCN1CCC(c3noc4cc(F)ccc34)CC1)CCCC2 [RISPERIDONE]
Compound NOT metabolized: [1] | [3]
not listed: [16]
Compound metabolized: all other assays above
